Test results from the supplement of paper PMC10307832.

Columns and labels:
Experiment in all cases: relative viability (nuclei count vs DMSO), 5 days (fraction); higher = more cells survive
AZ628 + Dasatinib = compound: CC1=C(C=C(C=C1)NC(=O)C2=CC(=CC=C2)C(C)(C)C#N)NC3=CC4=C(C=C3)N=CN(C4=O)C [AZ628] + Cc1nc(Nc2ncc(C(=O)Nc3c(C)cccc3Cl)s2)cc(N2CCN(CCO)CC2)n1 [Dasatinib] (partner 0.075 µM)
In short: (§1)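 Each reported value is a median over duplicate plates. It expresses relative viability: treated-well nuclei count divided by vehicle-well nuclei count. Lung cancer cell lines in 1536-well plates were dosed by pin tool a day after seeding, alone with one drug or with a fixed anchor-drug dose plus five library-drug doses (not always all listed) in √10 steps, and nuclei were counted after 5 days.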

AZ628 + Phenformin = compound: CC1=C(C=C(C=C1)NC(=O)C2=CC(=CC=C2)C(C)(C)C#N)NC3=CC4=C(C=C3)N=CN(C4=O)C [AZ628] + N=C(N)NC(=N)NCCc1ccccc1 [Phenformin] (partner 250 µM)
In short: as §1

[1] = compound: C[As](C)SC[C@H](NC(=O)CC[C@H](N)C(=O)O)C(=O)NCC(=O)O [Darinaparsin] + Nc1ncn([C@H]2C[C@H](O)[C@@H](CO)O2)c(=O)n1 [Decitabine] (partner 2 µM)
In short: as §1

AZ628 + AZD7762 = compound: CC1=C(C=C(C=C1)NC(=O)C2=CC(=CC=C2)C(C)(C)C#N)NC3=CC4=C(C=C3)N=CN(C4=O)C [AZ628] + NC(=O)Nc1cc(-c2cccc(F)c2)sc1C(=O)N[C@H]1CCCNC1 [AZD7762] (partner 0.2 µM)
In short: as §1

Cell Line | relative viability (AZ628 + Dasatinib; first compound 0.08 µM) | relative viability (AZ628 + Dasatinib; first compound 0.253 µM) | relative viability (AZ628 + Dasatinib; first compound 0.8 µM) | relative viability (AZ628 + Dasatinib; first compound 2.53 µM) | relative viability (AZ628 + Dasatinib; first compound 8 µM) | relative viability (AZ628 + Phenformin; first compound 0.08 µM) | relative viability (AZ628 + Phenformin; first compound 0.253 µM) | relative viability (AZ628 + Phenformin; first compound 0.8 µM) | relative viability (AZ628 + Phenformin; first compound 2.53 µM) | relative viability (AZ628 + Phenformin; first compound 8 µM) | relative viability ([1]; first compound 0.08 µM) | relative viability ([1]; first compound 0.8 µM) | relative viability ([1]; first compound 2.53 µM) | relative viability ([1]; first compound 8 µM) | relative viability (AZ628 + AZD7762; first compound 0.08 µM) | relative viability (AZ628 + AZD7762; first compound 0.253 µM) | relative viability (AZ628 + AZD7762; first compound 0.8 µM) | relative viability (AZ628 + AZD7762; first compound 2.53 µM) | relative viability (AZ628 + AZD7762; first compound 8 µM)
NCI-H2009 | 0.202 | 0.258 | 0.182 | 0.173 | 0.184 | 0.447 | 0.395 | 0.283 | 0.346 | 0.273 | 0.412 | 0.354 | 0.375 | 0.398 | – | – | – | – | –
SK-LU-1 | – | 0.179 | 0.231 | 0.208 | 0.22 | – | 0.433 | 0.488 | 0.348 | 0.253 | 0.637 | 0.587 | 0.495 | 0.759 | – | – | – | – | –
RERF-LC-KJ | 0.737 | 0.72 | 0.752 | 0.75 | 0.64 | 0.432 | 0.424 | 0.392 | 0.401 | 0.31 | 0.728 | 0.68 | 0.687 | 0.561 | 0.948 | 0.901 | 1.56 | 1.03 | 0.87
NCI-H322M | 0.28 | 0.261 | 0.264 | 0.231 | 0.268 | 0.783 | 0.737 | 0.725 | 0.769 | 0.663 | 0.704 | 0.686 | 0.577 | 0.724 | 0.529 | 0.526 | 0.455 | 0.467 | 0.524
LK-2 | 0.311 | 0.288 | 0.204 | 0.23 | 0.212 | 0.508 | 0.312 | 0.557 | 0.304 | 0.172 | 0.281 | 0.235 | 0.277 | 0.333 | 0.526 | 0.354 | 0.273 | 0.357 | 0.259
SK-MES-1 | 0.347 | 0.342 | 0.287 | 0.338 | 0.218 | 0.715 | 0.661 | 0.619 | 0.675 | 0.466 | 0.358 | 0.357 | 0.34 | 0.388 | – | – | – | – | –
NCI-H2228 | 0.479 | 0.531 | 0.47 | 0.432 | 0.396 | 0.25 | 0.274 | 0.252 | 0.218 | 0.206 | – | – | – | – | – | – | – | – | –
NCI-H1792 | 0.901 | 0.595 | 0.513 | 0.584 | 0.299 | 0.309 | 0.258 | 0.225 | 0.158 | 0.115 | 0.694 | 0.512 | – | 0.588 | 0.776 | 0.668 | 0.575 | 0.541 | 0.385
LOU-NH91 | 0.553 | 0.484 | 0.541 | 0.497 | 0.471 | 0.749 | 0.654 | 0.776 | 0.661 | 0.438 | 0.876 | 0.771 | 0.782 | 0.799 | 0.75 | 0.712 | 0.727 | 0.68 | 0.603
SW 900 | 1.1 | 0.466 | 0.59 | 0.528 | 0.547 | 0.536 | 0.691 | 0.561 | 0.422 | 0.399 | 0.44 | – | 0.404 | 0.462 | 0.552 | 0.552 | 0.494 | 0.634 | 0.378
LU99A | 0.527 | 0.625 | 0.52 | 0.492 | 0.242 | 0.808 | 0.67 | 0.694 | 0.782 | 0.551 | 0.887 | 0.863 | 0.925 | 1.06 | 0.436 | 0.363 | 0.415 | 0.33 | 0.22
NCI-H661 | 0.87 | 0.644 | 0.629 | 0.666 | 0.659 | 0.283 | 0.266 | 0.278 | 0.292 | 0.275 | 0.581 | 0.528 | 0.523 | 0.652 | – | – | – | – | –
NCI-H3122 | 0.819 | 0.39 | 0.15 | 0.212 | 0.176 | 0.366 | 0.288 | 0.305 | 0.31 | 0.289 | 0.425 | 0.437 | 0.42 | 0.442 | 0.953 | 0.782 | 0.578 | 0.626 | 0.361
LC-2-ad | 0.713 | 0.419 | 0.396 | 0.365 | 0.149 | 0.606 | 0.562 | 0.556 | 0.49 | 0.532 | 0.905 | 0.838 | 0.786 | 0.899 | 0.909 | 0.85 | 1.02 | 0.922 | 0.759
HCC-78 | 0.514 | 0.338 | 0.417 | 0.394 | 0.367 | 0.814 | 0.631 | 0.767 | 0.705 | 0.726 | 0.729 | 0.668 | 0.65 | 0.853 | 0.808 | 0.663 | 0.644 | 0.85 | 0.787
